Measurements as given in EP0412814A2, “Pyridazinones having cardiotonic and beta blocking activity” (GLAXO WELLCOME INC., priority 1989, dated 1991).
Read-outs that look alike come from different tables or passages of the source.

What was measured:
[1] = system: barbiturate-anesthetized dogs; assay: Anesthetized dog: inotropic effect (dP/dt) and inhibition of the isoproterenol response; assay type: in vivo; conditions: for ED50: Canis lupus familiaris, iv, i.v. infusion, cumulative dose
Procedure: Inotropic effects were evaluated in barbiturate-anesthetized dogs by differentiating left intraventricular pressure. This procedure was carried out essentially as described by M.K. Grizzel et al in the FASEB Journal, Vol. 3, page 1039, abstract 4728 (1989). Purpose breed mongrel dogs (14-20 kg) of either sex were anesthetized with a mixture of sodium pentobarbital (15 mg/kg) and sodium barbital (300 mg/kg) i.v., intubated with a cuffed endotracheal tube and ventilated with a respirator (Harvard Apparatus, model 613, South Natick, MA) with room air (22 rpm,10-12 ml/kg/stroke). A 5F pressure transducer (Millar Instruments, Mikkro-tip Houston, TX) was inserted through the right carotid artery into the left ventricle to monitor intraventricular pressure. The left ventricular pressure signal was differentiated (using a 100 Hz low pass differential amplifier, Gould Inc., Cleveland, OH) to obtain its maximal rate of rise (+dP/dt), and used to trigger a biotach amplifier to record heart rate. Cardiac output was determined via thermodilution with a Spectramed computer (Starcom, Oxnard, CA) and a 5F Swan Ganz catheter which was inserted into the right jugular vein and positioned in the pulmonary artery. The femoral artery was cannulated for monitoring arterial blood pressure with a pressure transducer (Micron model MP15D, Simi Valley, CA). A lead II electrocardiogram was measured using subcutaneous electrodes. […] Rectal temperature was monitored and maintained at 37-38°C with a heating pad (Baxter Health Care model K20, McGaw Park, IL). All variables were recorded using a Gould 3800S physiograph.
Isoproterenol ([…]) was injected i.v. into the cephalic vein at 10 min intervals except for when the test drug infusion was begun. […] Inhibition of the isoproterenol responses on contractility (dP/dt), heart rate and diastolic blood pressure were determined at each dose of test compound. The inotropic effect of each compound was determined by comparing the level of dP/dt at the end of each 10 min period to that of the level of dP/dt just prior to the infusion of test compound. […]

guinea-pigs left atria = assay: Guinea pig left atria test: force of atrial contraction; conditions: Cavia porcellus
From the text: Male Hartley guinea-pigs (300-400 grams) were sacrificed by cervical dislocation or carbon dioxide asphyxiation. The hearts were immediately removed and placed in oxygenated Krebs-Henseleit buffer (composition (millimolar): Na⁺ 143, K⁺ 5.9, Ca⁺⁺ 1.25, Mg⁺⁺ 1.2, Cl⁻ 128, HCO₃⁻ 25, SO₄⁻⁻ 1.2, H₂PO₄⁻ 1.0, and D-glucose 10). Left atria were dissected away from the remainder of the heart and mounted on holders against platinum punctate electrodes. The mounted atria were placed in tissue baths maintained at 31°C and oxygenated with 95% 0₂-5% CO₂ under 1.0 gram resting tension. The atria were stimulated through the punctate electrode and an external platimum electrode at the threshold voltage plus thirty percent, one Hertz frequency and five to ten milliseconds duration. Contractions were detected with a force displacement transducer and recorded on a physiograph. […]
Direct effects of the test compounds on the force of atrial contraction were observed and recorded after addition of the compounds to the tissue bath. […] Responses to the test compounds and forskolin were expressed as a percentage of the maximal response to forskolin. EC₅₀ values for the test compounds were calculated as the concentration of the compound neceesary to produce an inotropic response half that of the maximal response produced by the test compound. […]

rat aorta = assay: Rat aorta protocol: relaxation of phenylephrine-contracted rat aorta rings (endothelium removed); conditions: percentage of maximal relaxation produced by nitroprusside (1 X 10⁻⁴ M), at the highest dose tested (100 micromolar), read-out: maximal response
Procedure: Such vasorelaxation appears to be related to inhibition of the phosphodiesterase (PDE) isozyme related to the cardiac sarcoplasmic reticulum. Thus, relaxation of rat aorta can be used as a screen to eliminate compounds which are not PDE inhibitors prior to testing for actual inotropic activity.
Rings of rat aorta (endothelium removed) were prepared for the measurement of isometric force in isolated tissue organ chambers essentially as previously described by T.J. Rimele et al in the Journal of Pharmacol. Exp. Ther. 245:102-111 (1988). The experimental portion of the protocol began with the addition of methylene blue (1 X 10⁻⁵ M) and propranolol (1 X 10⁻⁶ M) to each organ chamber to inhibit basal cGMP accumulation due to soluble guanylate cyclase and beta-adrenoceptors. Phenylephrine (1 X 10⁻⁷ M) was then added and the rings were allowed to obtain a stable contractile response after which time, the test compound was added in a cumulative fashion. The relaxation induced by each concentration of the test compound was expressed as a percentage of the maximal relaxation produced by nitroprusside (1 X 10⁻⁴ M). […] The IC₅₀ (concentration of test compound which produced a relaxation equivalent to 50% of the maximal relaxation induced by nitroprusside) was determined for each tissue. […]

Beta-1 adrenoceptor = target: T1, Beta-1 adrenoceptor (Rattus norvegicus, UniProt P18090); assay: Beta adrenoceptor binding assay: [I-125]-Pindolol displacement from rat brain cortical membranes; conditions: IC₅₀ for displacement of [I-125]-Pindolol, 22°C, two hours, read-out: pIC₅₀ (converted)
T1 construct: rat brain cortices were used as the source of membrane vesicles; from tissue; host or cells: rat brain cortex membranes
T1 sequence (P18090 whole entry): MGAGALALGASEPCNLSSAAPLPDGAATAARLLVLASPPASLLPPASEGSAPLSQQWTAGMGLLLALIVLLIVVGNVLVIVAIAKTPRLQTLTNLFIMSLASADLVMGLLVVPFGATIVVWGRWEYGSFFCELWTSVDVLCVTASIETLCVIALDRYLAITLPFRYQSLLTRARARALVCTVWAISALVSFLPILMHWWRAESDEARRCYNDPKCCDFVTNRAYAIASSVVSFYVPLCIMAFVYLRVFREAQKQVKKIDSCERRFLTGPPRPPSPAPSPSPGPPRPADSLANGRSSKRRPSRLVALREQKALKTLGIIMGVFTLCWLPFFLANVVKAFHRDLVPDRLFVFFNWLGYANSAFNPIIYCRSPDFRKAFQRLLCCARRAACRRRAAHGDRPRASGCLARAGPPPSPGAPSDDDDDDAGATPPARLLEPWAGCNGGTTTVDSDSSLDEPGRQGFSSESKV
Procedure: Because of its receptor density rat brain cortices were used as the source of membrane vesicles to be used in the receptor binding assays. Freshly excised cortexes were homogenized in 20 volumes (w/v) 50 mM TRIS HCl Buffer (pH 7.5), with a glass/Teflon homogenizer following the procedure previously described by T.J. Rimele in J. Pharmacol. Exp. Ther. 239: 1-8, 1986. Beta-1 adrenoceptor binding activity was determined following methods described by M.H. Randall, et al, J. Med. Chem. 20: 1090-1094, 1977, and J. Homberger, et al in Mol. Pharmacol. 20: 453-469, 1981. The incubation mixture consisted of; 26 microliters of 50 mM TRIS/HCl, 10 mM MgCl₂ pH 7.6 buffer, 25 microliters of test drug or 10-6 pindolol to define nonspecific binding, 100 microliters of [I-125]-Pindolol (2200 Ci/mM) at a final concentration of 10-9, and 100 microliters of brain cortical membranes. […] The radioactivity in each filter containing the trapped membrane particles was counted with a gamma counter. […] All specific binding values obtained in the presence of test compounds were expressed as the percentage of specific binding displaced by the individual agents. The resultant values were plotted on a log plot of concentration of test compound vs. percentage of displacement and an IC₅₀ value (drug concentration which produces 50% displacement) determined. […]

O=C(COc1ccc(C2=NNC(=O)CC2)cc1Cl)NCCNC[C@H](O)COc1ccccc1 [Example 19, 6-{4-[N-[2-[3-phenoxy-2-hydroxypropylamino]ethyl]carbamoylmethoxy]-3-chlorophenyl}-4,5-dihydro-3(2H)-pyridazinone]
ED50 ([1]; 50% increase in dP/dt compared to a baseline established prior to drug infusion, read-out: inotropic ED₅₀): 0.114 µmol/kg
ED50 ([1]; 50% inhibition of the dP/dt response to isoproterenol, read-out: ED₅₀ for inhibition of the isoproterenol response): 0.469 µmol/kg
inotropic effects with atenolol ([1]; whether the inotropic effects are blocked by atenolol): not blocked by atenolol
EC50 (guinea-pigs left atria; concentration producing an inotropic response half that of the maximal response produced by the test compound, read-out: ED₅₀): 9 µM
Emax at 100 µM (guinea-pigs left atria; percentage of the maximal response to forskolin, at 100 micromolar, propranolol and phentolamine (1.0 micromolar) present): 83%
Emax at 100 µM (rat aorta): 100%
IC50 (Beta-1 adrenoceptor): 0.0269 µM
